Laboratory results taken from patent US9206128B2 (Constellation Pharmaceuticals, Inc., priority 2011, dated 2015).

Key:
EZH2 = EZH2 (Homo sapiens, UniProt Q15910); test: EZH2 activity inhibition assay (rPRC2, 3H SAM, biotinylated oligonucleosomes, FlashPlate); assay type: biochemical; settings: rPRC2, 2 nM EZH2, 0.2 μM 3H SAM, top concentration 80 μM
Experimental: (§1) EZH2 Assay: Assays were carried out by mixing rPRC2 together with biotinylated oligonucleosome substrates in the presence of the radio-labeled enzyme co-factor, S-adenosyl-L-methionine (^3H SAM) (Perkin Elmer) and monitoring the enzymatically mediated transfer of tritiated methyl groups from ^3H SAM to histone lysine residues. The amount of resulting tritiated methyl histone product was measured by first capturing the biotinylated oligonucleosomes in streptavidin (SAV) coated FlashPlates (Perkin Elmer), followed by a wash step to remove un-reacted ^3H SAM, and then counting on a TopCount NXT 384 well plate scintillation counter (Perkin Elmer).
A 12.5 μL volume of the HMT enzyme, H3K27me3 peptide and oligonucleosome substrate in assay buffer was added to each well of the assay plate using a Multidrop Combi (ThermoFisher). Compounds were pre-incubated with the enzyme for 20 min, followed by initiation of the methyltransferase reaction by addition of 12.5 μL of 3H SAM in assay buffer (final volume=25 μL). […] Stopped reactions were transferred to SAV coated Flashplates (Perkin Elmer), incubated for 120 min, washed with a plate washer, and then read on the TopCount NXT (1.0 min/well) to measure the amount of methyl histone product formed during the reaction.

Y641N EZH2 = Y641N EZH2 (Homo sapiens, UniProt Q15910, Y641N); test: Y641N EZH2 activity inhibition assay (as EZH2 assay, reconstituted H3K27Me2 oligonucleosomes as substrate); assay type: biochemical; settings: Y641N EZH2 mutant enzyme
Sequence of Y641N EZH2 (Q15910 whole entry Y641N): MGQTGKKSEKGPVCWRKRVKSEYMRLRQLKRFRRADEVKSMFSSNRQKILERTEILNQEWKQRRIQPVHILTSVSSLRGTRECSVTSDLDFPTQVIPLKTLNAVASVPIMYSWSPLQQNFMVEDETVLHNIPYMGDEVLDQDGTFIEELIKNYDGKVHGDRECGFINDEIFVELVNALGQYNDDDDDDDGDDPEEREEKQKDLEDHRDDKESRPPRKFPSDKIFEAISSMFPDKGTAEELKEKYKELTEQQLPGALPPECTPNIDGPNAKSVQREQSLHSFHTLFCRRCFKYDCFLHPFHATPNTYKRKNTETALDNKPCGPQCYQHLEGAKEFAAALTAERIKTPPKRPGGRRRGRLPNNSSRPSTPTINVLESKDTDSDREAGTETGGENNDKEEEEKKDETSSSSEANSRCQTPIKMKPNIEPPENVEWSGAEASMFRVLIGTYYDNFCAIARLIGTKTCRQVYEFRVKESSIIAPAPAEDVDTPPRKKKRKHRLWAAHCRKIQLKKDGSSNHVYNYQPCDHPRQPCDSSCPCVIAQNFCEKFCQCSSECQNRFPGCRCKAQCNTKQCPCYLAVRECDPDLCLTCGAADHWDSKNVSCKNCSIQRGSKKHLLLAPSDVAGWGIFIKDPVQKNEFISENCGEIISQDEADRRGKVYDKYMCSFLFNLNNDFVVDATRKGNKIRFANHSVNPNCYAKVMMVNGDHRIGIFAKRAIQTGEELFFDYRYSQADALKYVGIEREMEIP
Sequence of Y641N EZH2 (O75530 whole entry partner): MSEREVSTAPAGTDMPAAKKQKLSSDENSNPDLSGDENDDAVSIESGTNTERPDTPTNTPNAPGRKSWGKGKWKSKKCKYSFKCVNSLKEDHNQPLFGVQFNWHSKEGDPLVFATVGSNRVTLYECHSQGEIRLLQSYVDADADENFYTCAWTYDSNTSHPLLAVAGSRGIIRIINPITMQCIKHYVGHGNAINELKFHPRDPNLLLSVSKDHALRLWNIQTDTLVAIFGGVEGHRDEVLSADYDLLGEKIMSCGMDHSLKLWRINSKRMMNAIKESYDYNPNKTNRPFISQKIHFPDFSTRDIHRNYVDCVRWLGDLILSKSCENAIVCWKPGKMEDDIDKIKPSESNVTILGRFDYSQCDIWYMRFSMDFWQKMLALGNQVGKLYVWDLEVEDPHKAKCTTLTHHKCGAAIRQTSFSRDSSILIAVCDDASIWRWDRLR
Sequence of Y641N EZH2 (Q15022 whole entry partner): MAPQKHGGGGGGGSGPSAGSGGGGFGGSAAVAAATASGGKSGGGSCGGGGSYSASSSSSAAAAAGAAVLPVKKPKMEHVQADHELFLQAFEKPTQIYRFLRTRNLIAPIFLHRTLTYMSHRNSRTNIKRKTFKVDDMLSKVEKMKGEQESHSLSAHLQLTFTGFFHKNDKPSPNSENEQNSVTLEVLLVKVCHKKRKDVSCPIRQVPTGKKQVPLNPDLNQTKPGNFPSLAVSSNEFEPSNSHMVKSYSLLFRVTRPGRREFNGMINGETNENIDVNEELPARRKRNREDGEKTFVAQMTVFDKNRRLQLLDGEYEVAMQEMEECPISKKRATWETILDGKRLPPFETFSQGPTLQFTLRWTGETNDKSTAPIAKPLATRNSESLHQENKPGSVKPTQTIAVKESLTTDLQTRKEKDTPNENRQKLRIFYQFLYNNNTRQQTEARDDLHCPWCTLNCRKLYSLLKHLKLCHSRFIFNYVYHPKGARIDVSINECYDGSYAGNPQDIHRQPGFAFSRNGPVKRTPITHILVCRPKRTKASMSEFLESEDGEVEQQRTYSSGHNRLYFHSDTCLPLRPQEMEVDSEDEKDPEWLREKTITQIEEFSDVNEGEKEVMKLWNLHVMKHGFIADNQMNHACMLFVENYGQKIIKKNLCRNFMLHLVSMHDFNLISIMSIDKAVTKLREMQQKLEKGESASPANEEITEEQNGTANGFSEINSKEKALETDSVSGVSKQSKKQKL
Experimental: as §1, with “Elmer). The final assay conditions for EZH2 were as follows: 50 mM Tris Buffer pH 8.5, 1 mM DTT, 69 μM Brij-35 detergent, 5.0 mM MgCl2, 0.1 mg/mL BSA, 0.2 μM ^3H SAM, 0.2 μM biotinylated oligonucleosomes, 3.6 μM H3K27me3 peptide and 2 nM EZH2.” for “Elmer).”
A 12.5 μL volume of the HMT enzyme, H3K27me3 peptide and oligonucleosome substrate in assay buffer was added to each well of the assay plate using a Multidrop Combi (ThermoFisher). Compounds were pre-incubated with the enzyme for 20 min, followed by initiation of the methyltransferase reaction by addition of 12.5 μL of 3H SAM in assay buffer (final volume=25 μL). The final concentrations of compounds ranged from a top default concentration of 80 μM down to 0.16 μM in ten 2-fold dilution steps. Reactions were carried out for 60 minutes and quenched with 20 μL per well of 1.96 mM SAH, 50 mM Tris PH 8.5, 200 mM EDTA. Stopped reactions were transferred to SAV coated Flashplates (Perkin Elmer), incubated for 120 min, washed with a plate washer, and then read on the TopCount NXT (1.0 min/well) to measure the amount of methyl histone product formed during the reaction.

Sequence of EZH2 (Q15910 whole entry): as the sequence (Q15910 whole entry Y641N) above, with N641Y counted along it
Sequence of EZH2 (O75530 whole entry partner): as the sequence (O75530 whole entry partner) above
Sequence of EZH2 (Q15022 whole entry partner): as the sequence (Q15022 whole entry partner) above

Structure (SMILES) | IC50 (EZH2) | IC50 (Y641N EZH2)
Cc1cc(C)c(CNC(=O)c2cnc(Oc3ccccc3)nc2)c(=O)[nH]1 [Compound I-79, N-((2-hydroxy-4,6-dimethylpyridin-3-yl)methyl)-2-phenoxypyrimidine-5-carboxamide] | 10 to 50 µM | > 80 µM
Cc1cc(C)c(CNC(=O)c2ccc(CN3CCN(CCO)CC3)cc2)c(=O)[nH]1 [Compound I-89, N-((4,6-dimethyl-2-oxo-1,2-dihydropyridin-3-yl)methyl)-4-((4-(2-hydroxyethyl)piperazin-1-yl)methyl)benzamide] | 1 to 10 µM | > 80 µM
Cc1c[nH]c(=O)c(CNC(=O)c2ccc(C(C)Oc3ccccc3)cc2)c1 (stereo not shown) [Compound I-156] | > 80 µM | > 80 µM
Cc1cc(CNC(=O)c2ccc(C(C)Oc3ccccc3)cc2)c(=O)[nH]c1C (stereo not shown) [Compound I-157] | > 80 µM | > 80 µM
Cc1cc(C)c(CNC(=O)c2ccc(Oc3ccccc3)nn2)c(=O)[nH]1 [Compound I-158] | > 80 µM | > 80 µM
Cc1cc(C)c(CNC(=O)c2ncc(Oc3ccccc3)cn2)c(=O)[nH]1 [Compound I-159] | > 80 µM | > 80 µM
Cc1cc(C)c(CNC(=O)c2ccc([C@@H](C)Oc3ccccc3C#N)cc2)c(=O)[nH]1 [Compound I-162] | 1 to 10 µM | > 80 µM
Cc1cc(C)c(CNC(=O)c2ccc([C@@H](C)Oc3cccc(C#N)c3)cc2)c(=O)[nH]1 [Compound I-168] | 1 to 10 µM | > 80 µM
O=C(NCc1ccc(-c2ccccc2)[nH]c1=O)c1ccc(Oc2ccccc2)cc1 [Compound I-170] | > 80 µM | > 80 µM
O=C(NCc1cc2c([nH]c1=O)CCC2)c1ccc(Oc2ccccc2)cc1 [Compound I-178, N-((2-oxo-2,5,6,7-tetrahydro-1H-cyclopenta[b]pyridin-3-yl)methyl)-4-phenoxybenzamide] | 10 to 50 µM | 10 to 50 µM
O=C(NCc1cc2c([nH]c1=O)CCCC2)c1ccc(Oc2ccccc2)cc1 [Compound I-179] | > 50 µM | > 80 µM
Cc1cc(C)c(CNC(=O)c2ccc(C(C)Oc3ccccc3)nn2)c(=O)[nH]1 (stereo not shown) [Compound I-182, N-((2-hydroxy-4,6-dimethylpyridin-3-yl)methyl)-6-(1-phenoxyethyl)pyridazine-3-carboxamide] | 1 to 10 µM | > 80 µM
Cc1cc(C)c(CNC(=O)c2ccc(C(CO)Oc3ccccc3)cc2)c(=O)[nH]1 (stereo not shown) [Compound I-183, 4-(2-hydroxy-1-phenoxyethyl)-N-((2-hydroxy-4,6-dimethylpyridin-3-yl)methyl)benzamide] | 1 to 10 µM | > 80 µM
COCC(Oc1ccccc1)c1ccc(C(=O)NCc2c(C)cc(C)[nH]c2=O)cc1 (stereo not shown) [Compound I-193] | > 80 µM | > 80 µM
Cc1cc(N)c(CNC(=O)c2ccc(Oc3ccccc3)cc2)c(=O)[nH]1 [Compound I-196, N-((4-amino-2-hydroxy-6-methylpyridin-3-yl)methyl)-4-phenoxybenzamide] | 1 to 10 µM | > 80 µM

More lines, now with the values ahead:

IC50 (EZH2) | IC50 (Y641N EZH2) | Structure (SMILES)
1 to 10 µM | 10 to 50 µM | Cc1cc(C)c(CNC(=O)c2ccc(CN3CCCCC3)cc2C)c(=O)[nH]1 [Compound I-80, N-((2-hydroxy-4,6-dimethylpyridin-3-yl)methyl)-2-methyl-4-(piperidin-1-ylmethyl)benzamide]
1 to 10 µM | 10 to 50 µM | Cc1cc(C)c(CNC(=O)c2ccc(C(C)N3CCCCC3)cc2)c(=O)[nH]1 (stereo not shown) [Compound I-81]
< 1 µM | 1 to 10 µM | Cc1cc(C)c(CNC(=O)c2ccc(C3CCOC3)cc2)c(=O)[nH]1 (stereo not shown) [Compound I-83, N-((2-hydroxy-4,6-dimethylpyridin-3-yl)methyl)-4-(tetrahydrofuran-3-yl)benzamide]
1 to 10 µM | 10 to 50 µM | Cc1cc(C)c(CNC(=O)c2ccc(C3CCCO3)cc2)c(=O)[nH]1 (stereo not shown) [Compound I-84, N-((2-hydroxy-4,6-dimethylpyridin-3-yl)methyl)-4-(tetrahydrofuran-2-yl)benzamide]
< 1 µM | 1 to 10 µM | Cc1cc(C)c(CNC(=O)c2ccc(C(C)OC3CCCCC3)cc2)c(=O)[nH]1 (stereo not shown) [Compound I-85, 4-(1-(cyclohexyloxy)ethyl)-N-((2-hydroxy-4,6-dimethylpyridin-3-yl)methyl)benzamide]
< 1 µM | 1 to 10 µM | Cc1cc(C)c(CNC(=O)c2ccc(C3CCCC3)cc2)c(=O)[nH]1 [Compound I-86, 4-cyclopentyl-N-((2-hydroxy-4,6-dimethylpyridin-3-yl)methyl)benzamide]
1 to 10 µM | 1 to 10 µM | Cc1cc(C)c(CNC(=O)c2ccc(C(C)N3CCCCC3)cc2C)c(=O)[nH]1 (stereo not shown) [Compound I-87, N-((2-hydroxy-4,6-dimethylpyridin-3-yl)methyl)-2-methyl-4-(1-(piperidin-1-yl)ethyl)benzamide]
1 to 10 µM | > 80 µM | Cc1cc(C)c(CNC(=O)c2ccc(C(C)N3CCCCC3=O)cc2)c(=O)[nH]1 (stereo not shown) [Compound I-88, N-((2-hydroxy-4,6-dimethylpyridin-3-yl)methyl)-4-(1-(2-oxopiperidin-1-yl)ethyl)benzamide]
< 1 µM | > 80 µM | Cc1cc(C)c(CNC(=O)c2ccc(C(C)COc3ccccc3)cc2)c(O)n1 (stereo not shown) [Compound I-116, N-((2-hydroxy-4,6-dimethylpyridin-3-yl)methyl)-4-(1-phenoxypropan-2-yl)benzamide]
< 1 µM | 1 to 10 µM | Cc1cc(C)c(CNC(=O)c2ccc(C(C)Oc3ccncn3)cc2)c(=O)[nH]1 (stereo not shown) [Compound I-155, N-((2-hydroxy-4,6-dimethylpyridin-3-yl)methyl)-4-(1-(pyrimidin-4-yloxy)ethyl)benzamide]
< 1 µM | < 1 µM | Cc1cc(C)c(CNC(=O)c2ccc([C@H](C)Oc3ccccc3C#N)cc2)c(=O)[nH]1 [Compound I-163]
< 1 µM | < 1 µM | Cc1cc(C)c(CNC(=O)c2ccc([C@H](C)Oc3cccc(C#N)c3)cc2)c(=O)[nH]1 [Compound I-169]
< 1 µM | 1 to 10 µM | Cc1cc(C)c(CNC(=O)c2ccc(C(C)OC3CCOC3)cc2)c(=O)[nH]1 (stereo not shown) [Compound I-184, N-((2-hydroxy-4,6-dimethylpyridin-3-yl)methyl)-4-(1-(tetrahydrofuran-3-yloxy)ethyl)benzamide]
< 1 µM | 1 to 10 µM | Cc1cc(C)c(CNC(=O)c2ccc(C(C)OC3CCOCC3)cc2)c(=O)[nH]1 (stereo not shown) [Compound I-192]
< 1 µM | > 80 µM | CNc1cc(C)[nH]c(=O)c1CNC(=O)c1ccc(Oc2ccccc2)cc1 [Compound I-194, N-((2-hydroxy-6-methyl-4-(methylamino)pyridin-3-yl)methyl)-4-phenoxybenzamide]
< 1 µM | 1 to 10 µM | COc1cc(C)[nH]c(=O)c1CNC(=O)c1ccc(Oc2ccccc2)cc1 [Compound I-195, N-((2-hydroxy-4-methoxy-6-methylpyridin-3-yl)methyl)-4-phenoxybenzamide]
< 1 µM | 1 to 10 µM | Cc1cc(C)c(CNC(=O)c2c(C)cn(C(C)c3ccccc3)c(=O)c2C)c(=O)[nH]1 (stereo not shown) [Compound I-200, N-((4,6-dimethyl-2-oxo-1,2-dihydropyridin-3-yl)methyl)-3,5-dimethyl-2-oxo-1-(1-phenylethyl)-1,2-dihydropyridine-4-carboxamide]
